According to patent US7208154B2, “Methods and compositions for the treatment of MHC-associated conditions” (Regents of the University of Michigan, priority 2002, dated 2007):
Each block holds one molecule with its values, some of them ahead of it. No end group written: not given here.

Assays:
[1] = biological target: T1, calreticulin (Homo sapiens, UniProt P27797); assay: Peptide affinity column binding of purified recombinant calreticulin; settings: immunoblot of eluate
T1 sequence (P27797 18-417): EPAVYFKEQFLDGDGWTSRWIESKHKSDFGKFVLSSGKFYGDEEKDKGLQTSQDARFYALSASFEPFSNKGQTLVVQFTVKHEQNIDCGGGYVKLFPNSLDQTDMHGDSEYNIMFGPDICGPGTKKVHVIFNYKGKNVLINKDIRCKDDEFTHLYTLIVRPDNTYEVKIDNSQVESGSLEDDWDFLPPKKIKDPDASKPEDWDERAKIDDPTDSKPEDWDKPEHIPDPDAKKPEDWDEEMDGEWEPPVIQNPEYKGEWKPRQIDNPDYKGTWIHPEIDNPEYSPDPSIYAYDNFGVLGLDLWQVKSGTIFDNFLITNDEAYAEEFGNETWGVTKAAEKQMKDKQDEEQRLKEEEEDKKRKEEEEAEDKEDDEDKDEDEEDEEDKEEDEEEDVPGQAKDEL

[2] = test system: Total cellular protein extracts; assay: Peptide affinity chromatography of total cellular protein extracts; type: binding; settings: total cellular protein extracts loaded
From the text: Total cellular protein extracts were loaded onto columns of Sepharose beads, conjugated with either shared epitope-containing peptide 65–78*0404 [SEQ ID NO: 28] or the control peptide 65–78*0402 [SEQ ID NO: 8]. Bound proteins were eluted at low pH. […] 11 sequenced bands matched intracellular proteins, and only two sequences matched previously identified cell surface proteins: heat shock protein 60 (HSP60) and calreticulin. Both calreticulin and HSP60 are chaperones, with strong tendency to form hetero-complexes.

[3] = biological target: T2, human A2A adenosine receptor (Homo sapiens, UniProt P29274); assay: Comet assay DNA repair in HEK293/A2a transfectants; type: cell-based; settings: 20 min pretreatment, various doses
T2 construct: expressed in transfected cells; provided by Joel Linden
T2 sequence (P29274 whole entry): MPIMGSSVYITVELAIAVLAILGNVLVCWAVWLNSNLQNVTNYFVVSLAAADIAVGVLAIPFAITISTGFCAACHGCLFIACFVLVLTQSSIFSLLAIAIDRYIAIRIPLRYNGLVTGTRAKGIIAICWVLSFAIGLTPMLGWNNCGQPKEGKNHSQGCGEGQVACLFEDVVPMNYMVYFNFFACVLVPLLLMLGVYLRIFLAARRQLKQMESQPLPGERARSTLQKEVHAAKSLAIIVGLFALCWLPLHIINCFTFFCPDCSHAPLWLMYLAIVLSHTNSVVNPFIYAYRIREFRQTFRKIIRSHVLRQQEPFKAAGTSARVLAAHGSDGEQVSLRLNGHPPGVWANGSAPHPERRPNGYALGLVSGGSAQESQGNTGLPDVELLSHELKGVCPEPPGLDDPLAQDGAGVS
Protocol: (§1) To quantify DNA damage, cells were collected and three parallel samples were processed (a negative control, a DNA damage control (H2O2) and a sample subjected to H2O2 following exposure to various modulators of the cAMP signaling pathway). Cells are then washed in PBS. The washed cells are combined with molten low-melting agarose (Trevigen Cat. No. 4250-50-02) and transferred to a CometSlide™ (Trevigen Cat. No. 4250-100-03). The slides are immersed in lysis buffer for 30 min, on ice, in the dark. The slides are then treated with alkali buffer for 20 to 60 min at room temperature in the dark. The slides are then electrophoresed in buffer for 10 min at 20 volts, then fixed in methanol and ethanol. The slides are then stained with SYBR green (Trevigen Cat. No. 4250-50-05) solution and fluorescently imaged with a Diagnostic Instruments digitized camera, mounted on a Nikon Eclipse E400 microscope. Scion Image software is used to quantitate the comet tail intensity. Each data point is derived from tail fluorescent intensity determination in 50–100 individual cells. Data is presented as % DNA repair (the percent decrement in tail fluorescence intensity in agonist or antagonist-treated cells, relative to the intensity recorded in cells treated with H2O2 only)±SEM. (R.U.s)
(§2) Human embryonic kidney 293 cells (HEK 293) transfected with adenosine receptors were provided by Joel Linden. […]

[4] = test system: human fibroblastoid line M1 cells
From the text: To further determine the signaling pathways involved in DNA repair induction, the inventors used the Trevigen CometAssay™ kit (Cat. No. 4250-50-K). The CometAssay is a single-cell gel electrophoresis method that can measure a variety of types of DNA damage, and repair of damage, in individual cells. The assay is based on the alkaline lysis of labile DNA at sites of damage. The unwound, relaxed DNA is able to migrate out of the cell during electrophoresis and can be visualized by SYBR Green staining.
as §1
To directly examine that possibility, cells were incubated overnight with synthetic peptides corresponding to the region contained within amino acids 65–79 and their ability to mount DNA repair activity in response to cAMP-elevating agents was determined. M1 cells were preincubated overnight with 50 μg/ml of synthetic peptides corresponding to the region surrounding the third allelic hypervariable region (aa 65–79) of each of the following DRβ chains: *0401 (65–79*0401) [SEQ ID NO: 5], *0402 (65–79*0402) [SEQ ID NO: 7], *0403 (65–79*0403) [SEQ ID NO: 9] or *0404(65–79*0404) [SEQ ID NO: 10]. At the end of the preincubation, cells were collected, washed and 2CA-induced DNA repair was determined as above. Table 3 (above) lists the different third allelic hypervariable region peptides used in the entire study disclosed here.
A modified method as described previously by Auger et al. [Nature Med 2:306–310 1996] was used. Briefly, cyanogen bromide activated Speharose 4B (1.5 ml) was washed with 1 mM HCl and incubated with peptides in 0.1 M NaHCO3 and 0.5 M NaCl (pH 8) buffer overnight at 4° C. For each peptide, 5 mg was used per milliliter of Sepharose. Free Sepharose groups were blocked with 0.2 M glycine (pH 8) for 2 hours at room temperature. Columns were washed at 4° C. with the following buffers: 0.1 M NaHCO3, 0.5 M NaCl (pH 8) buffer, then 0.5 M CH3COONa (pH 4) buffer and finally PBS at pH 7.5. M1 cells were plated at a density of 0.5×10^6 cells per well (6 well plate) in 10% FBS DMEM medium until 70–80% confluence. Prior to incubation with peptides, cultures were changed to serum-free DMEM medium, then evenly overlaid with 50 μg bead conjugated peptides, and incubated for the indicated period. Soluble peptides were added overnight to M1 cells at a concentration of 50 μg/ml.

[5] = biological target: T3, human A2B adenosine receptor (Homo sapiens, UniProt P29275); assay: Comet assay DNA repair in HEK293/A2b transfectants; type: cell-based; settings: 20 min pretreatment, various doses
T3 construct: expressed in transfected cells; provided by Joel Linden
T3 sequence (P29275 1-332): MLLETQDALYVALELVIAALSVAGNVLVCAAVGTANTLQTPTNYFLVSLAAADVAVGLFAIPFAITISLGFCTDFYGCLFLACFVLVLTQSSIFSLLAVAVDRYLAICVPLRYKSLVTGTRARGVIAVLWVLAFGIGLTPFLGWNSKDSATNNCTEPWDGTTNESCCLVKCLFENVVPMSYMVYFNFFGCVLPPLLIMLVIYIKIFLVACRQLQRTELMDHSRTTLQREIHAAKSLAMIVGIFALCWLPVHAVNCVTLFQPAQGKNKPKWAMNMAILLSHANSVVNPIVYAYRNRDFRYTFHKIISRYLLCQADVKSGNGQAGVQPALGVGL
Protocol: as §1, §2

[6] = test system: hybrid neuroblastoma-glioma NG108–15 cell line; assay: Neuroprotection in acutely stressed NG108–15 cells; type: cell-based
Protocol: In order to assess whether shared epitope-containing peptides exert a neuroprotective effect, preliminary experiments were carried out with the hybrid neuroblastoma-glioma NG108–15 cell line. Cells (10^5/ml) were first cultured overnight at near-confluence in 24-well plates in DMEM medium supplemented with 1% fetal calf serum (FCS). Under these conditions, NG108–15 cells show a flat, multipolar morphology and neurite formation. After 20 hours, cells were stressed acutely in serum-free medium (by aspiration of the medium and replacement with serum-free DMEM) with 50 μg/ml of peptides and evaluated morphologically at different time points thereafter. […] Morphological differences between cultures treated with different peptides could be observed as early as 5–6 hrs after treatment. The photographs shown were taken at the 24 hr time point. In another experiment (FIG. 12C), NG108–15 cells were cultured at low cell density (2×10^4/ml) in 1% FCS-containing DMEM medium overnight. The next day cells were subjected to acute stress in serum-free and low glucose (RPMI1640) medium (after aspiration of the 1% FCS DMEM) in the presence of 50 μg/ml of either 65–78*0401 [SEQ ID NO: 6] or 65–78*0402 [SEQ ID NO: 8] peptides. After 72 hours, cells were fixed with 1% formaldehyde and inspected microscopically. Mean±SEM was determined by averaging cell counts in eight randomly-selected microscopic fields in 200× magnification. Neurite-positive cells were defined as cells with one or more projections extending at least twice as long as the cell diameter. […] (FIG. 12C). The calculated number of neurite-positive cells was over 6-fold higher in shared epitope-containing peptide-cultured cells. When cultured in the presence of lysophosphatidic acid or high concentrations of serum, neuronal cells undergo neurite retraction (130). […] Thus, it is concluded that shared epitope-containing peptides may exert neuroprotective effects.

[7] = test system: M1 cells; assay: cGMP level (enzyme immunoassay) in M1 cells; type: cell-based, human; settings: M1 cells exposed to 50 μg/ml soluble peptide
Protocol: cGMP was determined using an Amersham Pharmacia Biotech cGMP enzymeimmunoassay (EIA) system (Code RPN 226). The reagents (lysis reagents, standards, antibody, cGMP conjugate and wash buffer) are all prepared according to the manufacturer's instructions. Briefly, samples are acetylated with acetylation reagent (acetic anhydride in triethylamine) and then incubated with the antibody reagent and lysis buffer according to the manufacturer's instructions. The cGMP conjugate is then added and the microtiter plate is incubated according to the manufacturer's instructions. The wells are aspirated and washed, enzyme substrate is added and incubated, and the plate can be read at 630 nm or 450 nm (depending on the length of incubation and how the reaction was terminated). Controls are carried out as recommended by the manufacturer, and the results are calculated according to the manufacturer.
D.) cGMP levels in M1 cells were determined as described above using an enzyme immunoassay kit (Pharmacia) at different time points following exposure to 50 μg/ml of soluble 65–78*0401 [SEQ ID NO: 6] or 65–78*0402 [SEQ ID NO: 8] peptides.

[8] = test system: calreticulin; assay: Calreticulin cell surface expression in M1 cells (Western-blot, flow cytometry); type: cell-based, human; settings: 0.2 μM oligonucleotide, 24 to 48 hr, Lipofectin
Protocol: (§3) M1 cells were cultured in 6-well plate to 60–70% confluency. M1 cells were treated by 0.2 μM antisense oligonucleotide for 24 to 48 hr, using Lipofectin as a carrier. Calreticulin expression levels were determined by Western-blot and flow cytometry, using anti-calreticulin antibodies. Polyclonal rabbit anti-human calreticulin antibodies were obtained from ABR, Golden, CO.

[9] = biological target: T1, calreticulin; assay: Blocking of shared epitope peptide-triggered signaling (cAMP-inhibitory effect, genoprotection) in M1 cells; type: cell-based; parameters: endogenous in cells; host or cells: M1 human fibroblastoid cells; settings: M1 cells pre-incubated or transfected
Protocol: Finally, in order to determine whether these neuroprotective peptides transduce their signaling through calreticulin, two complementing protocols were executed: i) Inhibition of peptide-calreticulin interaction using anti-calreticulin antibodies, or ii) blocking calreticulin expression with antisense oligonucleotides (as shown in FIG. 13C and FIG. 13D).
as §3

- Binding of recombinant human calreticulin to peptide affinity column [1]: specifically bound
- Protein binding: distinct bands in low pH eluates of peptide-conjugated Sepharose column [2]: ~20
Molecule: KDLLEQRRAAVDTY [65–78*0404, synthetic peptide corresponding to amino acids 65–78 of the β chain encoded by the HLA-DRB*0404 allele]

Molecule: Nc1nc(Cl)nc2c1ncn2[C@@H]1O[C@H](CO)[C@@H](O)[C@H]1O [2CA, 2-chloroadenosine]
- 2CA-induced DNA repair signal transduced [3]: transduced the signal
- DNA repair triggered ([4]; M1 cells stimulated 20 min with various concentrations before 100 μM H2O2): triggered in all cases DNA repair
- 2CA-induced DNA repair signal transduced [5]: transduced the signal

Molecule: KDLLEQKRAAVDTY-NH2 [65–78*0401]
- Inhibition of neurite retraction effect of 10% FCS ([6]; data not shown): inhibited the neurite retraction effect
- Survival rate versus control peptide 65–78*0402 ([6]; low density, serum-free low glucose medium, 50 μg/ml, 72 hours, p<0.0005): significantly higher survival rate
- Percentage of neurite-positive cells versus control peptide 65–78*0402 ([6]; low density, serum-free low glucose medium, 50 μg/ml, 72 hours, p<0.001): higher percentage of neurite-positive cells
- Cell morphology after acute serum-free stress ([6]; near-confluent NG108–15, 50 μg/ml peptide, 24 hr): greater preservation of the multipolar flat cell morphology with neurites
- Calculated number of neurite-positive cells, fold higher than control peptide ([6]; serum-free low glucose medium, 50 μg/ml, 72 hours): over 6 fold
- IC50 [4]: ~250 nM
- cGMP levels [7]: triggered increased cGMP levels

Molecule: 5′-GGATAGCAGCATGGCGGGCCG-3′ (listed as DNA, chemistry not given here) [calreticulin antisense oligonucleotides, calreticulin antisense oligonucleotide synthesized by Operon]
- Inhibition of calreticulin cell surface expression [8]: inhibited cell surface expression
- Block of shared epitope peptide-triggered signaling / inhibitory effect on genoprotection [9]: blocked peptide-triggered signaling
